Read-outs that look alike come from different tables or passages of the source. A value given as a limit tells only on which side of the number the result lay.

Assay [1] relates to SYO-1 human biphasic synovial sarcoma tumor. Briefly: SYO-1 synovial sarcoma xenograft efficacy, daily i.p. dosing. Format: in vivo. As to conditions: 1 mg/kg i.p. daily, 3 weeks; NOD SCID mice. As for the experimental part:
Method: NOD SCID mice (Beijing Anikeeper Biotech, Beijing) were inoculated subcutaneously on the right flank with the single cell suspension of SYO-1 human biphasic synovial sarcoma tumor cells (5×106) in 100 μL Dulbecco's Modified Eagle Medium (DMEM) with 10% fetal bovine serum (FBS). The mice were randomized into either control group [10% dimethyl sulfoxide (DMSO), 40% polyethylene glycol (PEG400) and 50% water], or treatment group D1 when the mean tumor size reached about 117 mm^3. Mice were dosed daily through intraperitoneal (i.p.) route over the course of 3 weeks. All dose volumes were adjusted by body weights in terms of mg/kg.

Assay [2] concerns the target T1, BRD9 (Homo sapiens, UniProt Q9H8M2).
T1 sequence (Q9H8M2 1-597): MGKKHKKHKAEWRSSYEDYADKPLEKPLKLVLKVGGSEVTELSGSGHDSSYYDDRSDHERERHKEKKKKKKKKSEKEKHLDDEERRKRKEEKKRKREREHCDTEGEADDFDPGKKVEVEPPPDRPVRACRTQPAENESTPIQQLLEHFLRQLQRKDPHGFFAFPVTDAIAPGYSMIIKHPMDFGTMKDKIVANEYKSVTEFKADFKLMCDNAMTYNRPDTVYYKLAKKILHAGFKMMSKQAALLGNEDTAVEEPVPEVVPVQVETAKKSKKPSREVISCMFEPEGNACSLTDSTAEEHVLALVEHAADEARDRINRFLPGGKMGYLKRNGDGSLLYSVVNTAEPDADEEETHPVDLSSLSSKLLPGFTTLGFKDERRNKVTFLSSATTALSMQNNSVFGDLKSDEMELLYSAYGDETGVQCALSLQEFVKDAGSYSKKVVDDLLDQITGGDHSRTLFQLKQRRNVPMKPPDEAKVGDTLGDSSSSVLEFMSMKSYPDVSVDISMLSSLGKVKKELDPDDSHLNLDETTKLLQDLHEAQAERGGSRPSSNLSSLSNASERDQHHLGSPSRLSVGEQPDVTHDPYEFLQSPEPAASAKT
Nature of the assay: Kinetic experiments of BRD9 degradation in synovial sarcoma cell lines. Format: cell-based. As for the experimental part:
Kinetic Experiments in Synovial Sarcoma Cell Lines. To assess the rate of BRD9 protein degradation following treatment with compound D1, this compound was administered at a steady dose of 15 nM over multiple time points in SYO-1 and ASKA synovial sarcoma cell lines. After cell treatment, BRD9 protein levels were determined by western blot analyses.
Cells grown in flasks to log phase growth were washed with PBS and dissociated by adding TrypLE™ Express. Two wells were allocated per sample. Plates were incubated at 37° C. with 5% CO2 overnight.
The next day, cells were treated with 15 nM compound D1, with the final DMSO content of 0.1% (v/v) matching the untreated control. After the designated incubation periods for each sample, as indicated in FIGS. 29A and 29B, cells were harvested, resuspended in PBS, and centrifuged at 5,000 rpm for 5 minutes. After being washed twice with PBS, the resulting cell pellets were stored at −80° C.
Cells were processed for western blot analysis as follows (see Table 15 for specific conditions). Cell lysates were prepared by resuspending thawed pellets in RIPA lysis buffer with protease and phosphatase inhibitors and DNA nuclease enzymes. […] Samples were then analysed for total protein using BCA protein quantitation assay following manufacturer's instructions. […]

For assay [3], the target named is T1, BRD9. Briefly: BRD9 degradation by western blot in synovial sarcoma cells (SYO-1, ASKA). The class given is cell-based. As to conditions: for DC50: read-out: Fitted DC50. As for the experimental part: Method. Synovial sarcoma cells were plated in 6-well plate at […] cells/well and treated with serial concentrations of BRD9 degrader (10 nM top concentration, diluted 1:3) the next day for two time points at 37° C. Cells were then harvested, washed with cold PBS, and frozen in cell pellets at −80° C. Lysates were prepared by resuspending thawed pellets in 1×RIPA Lysis and Extraction buffer (Thermo Fisher, Cat #89900) with 1× Halt™ Protease and Phosphatase Inhibitor Cocktail, EDTA-free (Thermo Fisher, Cat #78441) and 1:1000 dilution Pierce™ Universal Nuclease for Cell Lysis 25ku (Thermo Fisher, Cat #88700). Lysates were incubated on ice for 10 minutes and then centrifuged in 4° C. at maximum speed (15,000 rpm) for 10 minutes. Samples were then analyzed for total protein using BCA protein quantification assay and diluted to 1 ug/μL with lysis buffer and 1× NuPAGE™ LDS Sample Buffer (4×) (Thermo Fisher, Cat #NP0007) and 1×DTT from 30× stock (Cell Signaling Technologies, Cat #14265S). Samples with 20-25 ug of total protein were loaded into 4-12% Bis-Tris Mini-Gel with 1×MES Running buffer and run at 150V for 45 minutes. Gels were transferred using Trans-Blot® Turbo™ Transfer System (semi-dry) at 25V for 10 minutes (High MW setting) on nitrocellulose blots. Blots were blocked in 5% milk in TBST for 1 hour and probed with BRD9 antibody (Bethyl Labs, Cat #A303-781A, 1:750 for SYO1, and Cell Signaling Technologies, Cat #71232S for ASKA) and beta-Actin antibody (Cell Signaling Technologies, Cat #3700, 1:2000) overnight at 4° C. The next day, blots were washed in TBST 3× and probed with 1:5000 IRDye® 680LT Goat anti-Rabbit IgG Secondary Antibody (LICOR, Cat #926-68021) and 1:10000 IRDye® 800CW Goat anti-Mouse IgG Secondary Antibody (LiCOR, Cat #926-32210) in LiCOR Odyssey® Blocking Buffer (TBS) for 1 hour at room temperature. Blots were washed in TBST 3× and scanned at […] wavelength using LiCOR Odyssey® CLx Imaging System. Western blot signal was quantified using same analyses program included in the same machine. BRD9 signal was quantified by normalizing to beta-actin signal and all samples were normalized to DMSO, set as 100% signal.

As to `COc1cc(-c2cn(C)c(=O)c3cnc(N4CCC4)cc23)cc(OC)c1CN1CCC(CN2CCC3(CC2)CN(c2ccc4c(c2)C(=O)N(C2CCC(=O)NC2=O)C4)C3)CC1` (racemic) [Compound D1, 3-[6-(7-[[1-([4-[6-(azetidin-1-yl)-2-methyl-1-oxo-2,7-naphthyridin-4-yl]-2,6-dimethoxyphenyl]methyl)piperidin-4-yl]methyl]-2,7-diazaspiro[3.5]nonan-2-yl)-1-oxo-3H-isoindol-2-yl]piperidine-2,6-dione], in assay [1], the tumor growth inhibition entry was “tumor growth inhibition”. The BRD9 protein degradation result at BRD9 [2] (ASKA cells, upon 30 minutes of treatment, 15 nM) is reported as “nearly complete BRD9 protein degradation”. The “time of treatment to markedly deplete BRD9 protein” value at BRD9 [2] (SYO-1 cells, 100-fold of NanoLuc DC50 (15 nM)) was no more than 2 h.
For `COc1cc(-c2cn(C)c(=O)c3cnc(N4CCC4)cc23)cc(OC)c1CN1CCC(CN2CCC3(CC2)CN(c2ccc4c(c2)C(=O)N([C@H]2CCC(=O)NC2=O)C4)C3)CC1` (single isomer, unassigned) [Compound S-D1], the DC50 at BRD9 [3] (ASKA, 0.5 h) came out at 0.34 nM; at BRD9 [3] (ASKA, 2 h), 0.012 nM; on BRD9 [3] (SYO-1, 1 h), 0.092 nM; on BRD9 [3] (SYO-1, 6 h) it was 0.023 nM. Also, at BRD9 [3] (SYO-1, 1 or 6 hours (FIGS. 16 and 17)), the “BRD9 degradation compared with racemic parent compound D1” value is on record as “slightly better”. Also, the “potency in degradation of endogenous BRD9 protein” value on BRD9 [3] (two synovial sarcoma cell lines, early time point) is listed as “much more potent”.
